# In patent publication US12441708B2, “Cereblon ligands and bifunctional compounds comprising the same” (Arvinas Operations, Inc., priority 2017, dated 2025):
# Columns and labels:
# Assay type in all cases: cell-based
# [1] = system: c-Myc; assay: BRD4 human c-Myc ELISA assay in 22RV-1 cells; settings: 22Rv1, 18 hours
# Method: 6. BRD4 Human c-Myc ELISA Assay Protocol
# 22RV-1 cells were seeded at 30,000 cells/well at a volume of 75 μL/well in RPMI with 10% FBS media in 96-well plates and grown overnight at 37° C. Cells were dosed with compounds at 4× concentration diluted in 0.4% DMSO; compounds were serially diluted 1:3 for 8-point dose curve. Twenty-five (25) ul of the compounds was added to cells for a final concentration starting at 300 nM-0.3 nM or 1 uM-1 nM in 0.1% DMSO and incubated for 18 hours. Media was aspirated, cells were washed 1× with PBS and aspirated. Cells were lysed in 50 ul RIPA buffer (50 mM Tris pH8, 150 mM NaCl, 1% Tx-100, 0.1% SDS, 0.5% sodium deoxycholate) supplemented with protease and phosphatase inhibitors. Plates were incubated on ice for 15 minutes then centrifuged at 4° C. for 10 minutes at 4000 rpm. Fifty (50) ul of cleared lysate from a 96-well assay plate was added into 96-well c-myc ELISA plate (Novex, Life Technologies Catalog #KH02041). c-myc standard was reconstituted with standard diluent buffer; standard curve range of 333 pg/ml-0 pg/ml was prepared, diluted 1:2 for 8-point dose curve. The rest of the assay was performed following the protocol from the c-myc ELISA kit. Data was analyzed and plotted using GraphPad Prism software.
# [2] = molecular target: estrogen receptor-alpha (ERα) (Homo sapiens (Human), UniProt P03372); assay: Estrogen receptor-alpha (ERα) degradation assay in T47D cells; settings: % degraded, 5 day incubation, read-out: ER Degradation Dmax
# Chain of estrogen receptor-alpha (ERα) (P03372 whole entry): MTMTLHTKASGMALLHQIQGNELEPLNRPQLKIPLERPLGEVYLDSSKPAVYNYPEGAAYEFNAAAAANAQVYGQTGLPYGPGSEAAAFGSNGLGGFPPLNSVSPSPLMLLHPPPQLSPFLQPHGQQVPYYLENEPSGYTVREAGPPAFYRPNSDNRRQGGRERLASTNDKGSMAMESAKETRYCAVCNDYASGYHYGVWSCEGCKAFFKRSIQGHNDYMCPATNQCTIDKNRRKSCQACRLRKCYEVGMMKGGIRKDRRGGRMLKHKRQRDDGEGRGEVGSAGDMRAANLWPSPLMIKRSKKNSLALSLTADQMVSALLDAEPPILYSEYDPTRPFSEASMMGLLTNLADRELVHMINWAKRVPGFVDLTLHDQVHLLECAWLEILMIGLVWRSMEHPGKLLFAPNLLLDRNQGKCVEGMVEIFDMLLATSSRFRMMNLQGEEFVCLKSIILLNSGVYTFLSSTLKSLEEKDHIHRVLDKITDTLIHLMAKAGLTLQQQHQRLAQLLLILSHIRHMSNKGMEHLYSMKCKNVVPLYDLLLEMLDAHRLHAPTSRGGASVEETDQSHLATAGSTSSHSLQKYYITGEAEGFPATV
# [3] = system: estrogen receptor; assay: ERE luciferase assay in T47D-KBluc cells; settings: Homo sapiens, 24 hours, read-out: ER Target Engagement IC50
# Method: 1. ERE Luciferase Assay for Compounds in Table 2
# T47D-1(Bluc cells (ATCC® ECRL 2 65, T47D human breast cancer cells stably transfected with estrogen responsive element/promoter/luciferase reporter gene) were seeded into 96-well white opaque plates in IR: PM growth medium supplemented with 10% fetal bovine serum (FBS) and allowed to adhere overnight in a 37° C. humidified incubator. The following day, cells were treated with PROTACs in a 12-point concentration curve (top final concentration of 300 nM with subsequent concentrations being 3-fold less with […] being the lowest concentration in the assay). Each PROTAC was tested independently in two experiments on 96-well plates. After 24 hours, media was removed and lysis buffer was added to the wells. Following lysis, Bright-Glo™ Luciferase Assay Substrate (Promega, Madison WI) was added and the luciferase activity was measured using a Cytation 3 plate reader (BioTek™, Winooski, VT). Each compound was assayed in duplicate and the activity was calculated as […] using GraphPad Prism software (San Diego, CA).
SMILES,IC50 [1],Dmax [2],IC50 [3]
"Cc1sc2c(c1C)C(c1ccc(Cl)cc1)=NC(CC(=O)NCCCOCCCOc1ccc3ncc(-n4ccc(=O)[nH]c4=O)cc3c1)c1nnc(C)n1-2 (stereo not drawn) [PROTAC-1, 2-(4-(4-chlorophenyl)-2,3,9-trimethyl-6H-thieno[3,2-f] [1,2,4]triazolo[4,3-a][1,4]diazepin-6-yl)-N-(3-(3-((3-(2,4-dioxo-3,4-dihydropyrimidin-1(2H)-yl)quinolin-6-yl)oxy)propoxy)propyl)acetamide]",≥ 100 nM,,
"O=C1CCC(N2CC(Oc3cccc(C4CCN(CCCOc5ccc([C@@H]6c7ccc(O)cc7CC[C@@H]6c6ccccc6)cc5)CC4)c3)=CC2=O)C(=O)N1 (stereo partly drawn) [PROTAC-106, 3-(4-(3-(1-(3-(4-((1R,2 S)-6-hydroxy-2-phenyl-1,2,3,4-tetrahydronaphthalen-1-yl)phenoxy)propyl)piperidin-4-yl)phenoxy)-2-oxo-2,5-dihydro-1H-pyrrol-1-yl)piperidine-2,6-dione]",,≤ 50%,< 1 nM
